Measurements taken from patent US10912819B2, “Neuroprotective peptides derived from activity-dependent neuroprotective protein for treatment of neurological diseases” (priority 2016, dated 2021).

Test system: Adnp^+/− mice
Experiment: MRI diffusion tensor imaging of chronically treated brains
Assay type: in vivo
Conditions: NAP in CB vs CB-treated Adnp^+/− mice
Procedure: MRI was performed on a 7.0 T/30 spectrometer (Bruker, Rheinstetten, Germany) using a volume coil for excitation and a rat quadrature coil for acquisition. The MRI protocols included coronal T2 and diffusion tensor imaging (DTI). T2 weighted images obtained with RARE sequence, with repetition time=3000 msec and echo time=49 msec, RARE factor 8, 4 averages, field of view of 2×2 cm, matrix dimensions of 256×256 and 24 slices of 0.5 mm thickness with no gap. The 24 coronal sections were used for volumetric analysis of the whole brain, Lateral ventricle and Hippocampus. DTI was obtained using a diffusion-weighted (DW) spin-echo echo-planar-imaging (EPI) pulse sequence with the following parameters: TR/TE=4000/25 ms, Δ/δ=10/4.5 ms, 4 EPI segments and 32 non-collinear gradient directions with a single b value (1000 sec/mm^2) and two images with b value of 0 sec/mm2 (referred to as b0). Geometrical parameters were: 24 slices of 0.5 mm thickness, matrix size of 128×128 and FOV of 20 mm^2). The imaging protocol was repeated 3 times for signal averaging and to compensate for acquisition where significant head motion was observed. Image analysis included DTI analysis of the DW-EPI images to produce the FA, radial, and axial diffusivity indexed maps.

CC[C@H](C)[C@H](NC(=O)[C@H](CO)NC(=O)[C@@H](NC(=O)[C@@H]1CCCN1C(=O)[C@H](C)NC(=O)[C@@H](N)CC(N)=O)C(C)C)C(=O)N1CCC[C@H]1C(=O)N[C@@H](CCC(N)=O)C(=O)O [NAP]
hippocampal mean diffusivity (MD) (hippocampal area −1.84 mm from Bregma): although insignificantly, was reduced | hippocampal fractional anisotropy (FA) (hippocampal area −2.34 mm from Bregma, p<0.05): significantly reduced
